In one experiment the target is D(2) dopamine receptor (Homo sapiens, UniProt P14416). Put plainly: Displacement […] from human cloned dopamine D2L receptor.
The target in experiment [1] is 5-hydroxytryptamine receptor 2A (Sus scrofa, UniProt P50129). Put plainly: (§1) Antagonist activity at serotonin 5HT2A receptor assessed as effect on 5HT-induced isometric contractile force in isolated rings of pig coronary artery. It is filed as functional, tissue-based. To be noted: read-out: pA2 (converted).
5-hydroxytryptamine receptor 2A, sequence (P50129 whole entry): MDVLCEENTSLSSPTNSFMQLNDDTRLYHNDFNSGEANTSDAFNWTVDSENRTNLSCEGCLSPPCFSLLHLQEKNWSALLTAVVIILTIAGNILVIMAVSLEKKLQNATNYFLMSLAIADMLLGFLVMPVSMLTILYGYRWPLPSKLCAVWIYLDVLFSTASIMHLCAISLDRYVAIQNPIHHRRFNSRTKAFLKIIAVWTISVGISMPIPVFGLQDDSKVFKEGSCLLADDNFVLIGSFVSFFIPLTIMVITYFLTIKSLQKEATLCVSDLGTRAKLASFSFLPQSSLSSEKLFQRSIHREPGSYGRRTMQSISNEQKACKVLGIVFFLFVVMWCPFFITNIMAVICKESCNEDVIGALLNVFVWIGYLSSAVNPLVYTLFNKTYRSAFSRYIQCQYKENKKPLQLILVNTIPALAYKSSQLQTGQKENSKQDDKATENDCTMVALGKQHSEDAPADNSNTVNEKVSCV
The target in another experiment is D(1A) dopamine receptor (Homo sapiens, UniProt P21728). The experiment is described as follows: Displacement […] from human cloned dopamine D1 receptor.
D(1A) dopamine receptor, sequence (P21728 whole entry): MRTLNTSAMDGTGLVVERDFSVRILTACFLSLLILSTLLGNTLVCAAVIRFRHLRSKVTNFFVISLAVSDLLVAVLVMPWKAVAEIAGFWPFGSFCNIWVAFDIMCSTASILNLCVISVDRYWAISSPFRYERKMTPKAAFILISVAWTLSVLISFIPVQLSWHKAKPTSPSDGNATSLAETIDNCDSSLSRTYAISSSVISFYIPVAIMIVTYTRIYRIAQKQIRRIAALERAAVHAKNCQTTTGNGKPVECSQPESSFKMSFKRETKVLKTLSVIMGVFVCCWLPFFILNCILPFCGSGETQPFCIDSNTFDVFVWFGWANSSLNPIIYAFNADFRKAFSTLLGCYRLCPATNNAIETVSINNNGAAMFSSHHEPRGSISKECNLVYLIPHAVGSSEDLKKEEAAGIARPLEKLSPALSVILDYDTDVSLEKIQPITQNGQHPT
In experiment [2] the target is 5-hydroxytryptamine receptor 2A (Sus scrofa) (UniProt P50129). The description is as §1. It is filed as functional, tissue-based.
5-hydroxytryptamine receptor 2A (Sus scrofa), sequence (P50129 whole entry): as the sequence (P50129 whole entry) above

D(2) dopamine receptor, sequence (P14416 whole entry): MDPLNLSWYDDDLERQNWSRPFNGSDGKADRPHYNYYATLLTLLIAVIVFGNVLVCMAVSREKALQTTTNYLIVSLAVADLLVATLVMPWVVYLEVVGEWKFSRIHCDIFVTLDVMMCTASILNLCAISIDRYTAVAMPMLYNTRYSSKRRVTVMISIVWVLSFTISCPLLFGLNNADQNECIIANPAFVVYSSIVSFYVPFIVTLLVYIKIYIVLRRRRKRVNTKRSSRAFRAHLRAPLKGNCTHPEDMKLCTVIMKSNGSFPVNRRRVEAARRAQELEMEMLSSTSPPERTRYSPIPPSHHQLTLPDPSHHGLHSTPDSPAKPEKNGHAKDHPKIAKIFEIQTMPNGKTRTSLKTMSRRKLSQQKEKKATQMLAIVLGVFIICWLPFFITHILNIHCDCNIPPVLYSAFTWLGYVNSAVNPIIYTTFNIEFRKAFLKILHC

In the case of `CN1CCCc2ccccc2Cc2ccc(O)cc2CC1`, the Ki was 41.7 nM at D(2) dopamine receptor and 2.67 nM at D(1A) dopamine receptor. For the same compound, the Kb in experiment [1] was 2.14 nM.
Turning to `CN1CCCc2ccccc2Cc2[nH]c3ccccc3c2CC1`, the inhibitory constant (Ki) on D(2) dopamine receptor was 13.5 nM; at D(1A) dopamine receptor it was 2.04 nM. Further, in experiment [2], the pD2 was 9.77.
`CN1CCc2ccccc2Cc2[nH]c3ccc(O)cc3c2CC1`: the inhibition constant (Ki) at D(2) dopamine receptor was 43.7 nM. Besides, the pD2 in experiment [2] is 9.97.
In the case of `Oc1ccc2c(c1)CCNCCc1ccccc1C2`, the results for the inhibition constant Ki on D(2) dopamine receptor and at D(1A) dopamine receptor were 389 nM and 63.1 nM, respectively. Further, the Kb in experiment [1] is 61.7 nM.
For `CN1CCc2ccccc2Cc2ccc(O)c(Cl)c2CC1`, the inhibitory constant (Ki) on D(2) dopamine receptor was 3.55 nM; at D(1A) dopamine receptor, 0.813 nM. For the same compound, the Kb in experiment [1] was 0.891 nM.
Take `COc1ccc2c(c1)CCN(C)CCc1ccccc1C2`: the Kb in experiment [1] is 2.04 nM. The affinity on D(1A) dopamine receptor, expressed as Ki, was 22.9 nM.
`CN1CCc2ccccc2Cc2ccc(O)cc2CC1`: in experiment [1], the Kb was 0.646 nM.
On to `CN1CCCc2c([nH]c3ccccc23)Cc2ccccc2CC1`, for which the Ki at D(2) dopamine receptor is 115 nM; at D(1A) dopamine receptor, 158 nM. The Kb in experiment [1] was 3.8 nM.
The like results for `CCN1CCc2ccccc2Cc2ccc(O)cc2CC1` were, in that order, 77.6 nM, 3.72 nM and 3.98 nM.
The matching figures for `COc1ccc2c(c1)CCCN(C)CCc1ccccc1C2`: 24.5 nM, 28.2 nM and 5.75 nM.
Regarding `COc1ccc2c(c1)CCN(C)CCCc1ccccc1C2`, the Kb in experiment [1] is 3.39 nM. In addition, the affinity on D(1A) dopamine receptor corresponds to a Ki of 21.9 nM.
As to `O=C(c1ccc(F)cc1)C1CCN(CCn2c(=O)[nH]c3ccccc3c2=O)CC1` [KETANSERIN], the Kb in experiment [1] is 1.32 nM.
With `CN1CCc2ccccc2Cc2[nH]c3ccccc3c2CC1`, the Ki at D(2) dopamine receptor is 41.7 nM; on D(1A) dopamine receptor, 1.86 nM. Besides, the pD2 in experiment [2] was 9.79.

In general, Ki refers to the equilibrium dissociation constant of an inhibitor or competing ligand from its target. Low values mean higher affinity, high ones lower affinity.
